Measured values published in US11364239B2 (priority 2020, dated 2022).
“Also recorded” adds a separate entry of the source.

How the values were obtained:
[1] = system: Aflatoxin B1-exposed rats; settings: rat, in vivo
[2] = system: Aflatoxin B1-exposed rats; settings: rat, in vivo; remark: listed apart in the source
[3] = system: Cyp enzymes (Cyp2b2, Cyp1a1, Cyp3a18, Cyp3a9, Cyp2d2, Cyp2c7, Cyp2a3, Cyp2d1, Cyp2c24, Cyp4a2); settings: in vivo
rats = settings: rat, in vivo

CC(C)CN(C[C@@H](O)[C@H](Cc1ccccc1)NC(=O)O[C@H]1CCOC1)S(=O)(=O)c1ccc(N)cc1 [Amprenavir, [(3S)-oxolan-3-yl] N-[(2S,3R)-4-[(4-aminophenyl)sulfonyl-(2-methylpropyl)amino]-3-hydroxy-1-phenylbutan-2-yl]carbamate]
final weights (indexed weight) [1]: no pairwise comparisons showed significant differences | liver fibrosis, as assessed by Sirius Red staining [1]: decreased liver fibrosis | liver hydroxyproline content [1]: trend towards decreased liver hydroxyproline content | liver hydroxyproline levels (a measure of liver fibrosis) [1]: trends towards decreased hydroxyproline | overall Aflatoxin B1 mitigation activity (liver histopathology: hepatocellular BrdU staining, serum transaminases, hydroxyproline levels) [1]: excellent mitigation activity; also recorded: most efficacious drug | serum ALT levels [1]: significantly lower | serum transaminases [1]: lower serum transaminases | survival [1]: improved survival | effect on Aflatoxin B1-induced reduction in weight gain [2]: no effect | liver hydroxyproline [2]: trends towards reducing | morphometric measurement of liver fibrosis [2]: trends towards reducing | overall effects on Aflatoxin B1-induced liver injury [2]: significant or trends towards significant beneficial effects | serum ALT [2]: reduced serum ALT | expression of Cyp enzymes in rat livers (transcriptomics) [3]: greatly upregulated

c1cn2cc(-c3ccc4cn[nH]c4c3)nc(Nc3ccc(N4CCOCC4)cc3)c2n1 [Entospletinib]
mitigating Aflatoxin B1 induced toxicity or injury ([1]; po): only mildly efficacious

CCOC(=O)[C@H](CCc1ccccc1)N[C@@H](C)C(=O)N1Cc2ccccc2C[C@H]1C(=O)O [Quinapril]
beneficial effects on Aflatoxin B1-induced growth impairment or hepatotoxicity ([1]; po): did not show beneficial effects

Aflatoxin B1
food intake (rats): comparable food intake | hepatocellular BrdU staining (rats): variable | liver histopathology (rats): abnormal liver histopathology | liver hydroxyproline (rats): significant increase | serum ALT (rats): reduced Serum ALT | serum transaminases (rats): trend towards increased serum transaminases | tissue hydroxyproline (rats): mild elevation | weight gain (rats): decreased weight gain

Cyp3cide
reduction of Aflatoxin B1-induced liver injury ([1]; po, 50 mg/kg): did not reduce
